Where a name gives a salt, the structure may show the parent alone. Read-outs that look alike come from different tables or passages of the source.
Assays:
[1] = molecular target: T1, α1A (rat submaxillary gland) (Rattus norvegicus, UniProt P43140); assay: Radioligand binding with [3H]-prazosin, α1A
T1 construct: α1A (rat submaxillary gland); from tissue; host or cells: rat submaxillary gland
T1 sequence (P43140 1-466): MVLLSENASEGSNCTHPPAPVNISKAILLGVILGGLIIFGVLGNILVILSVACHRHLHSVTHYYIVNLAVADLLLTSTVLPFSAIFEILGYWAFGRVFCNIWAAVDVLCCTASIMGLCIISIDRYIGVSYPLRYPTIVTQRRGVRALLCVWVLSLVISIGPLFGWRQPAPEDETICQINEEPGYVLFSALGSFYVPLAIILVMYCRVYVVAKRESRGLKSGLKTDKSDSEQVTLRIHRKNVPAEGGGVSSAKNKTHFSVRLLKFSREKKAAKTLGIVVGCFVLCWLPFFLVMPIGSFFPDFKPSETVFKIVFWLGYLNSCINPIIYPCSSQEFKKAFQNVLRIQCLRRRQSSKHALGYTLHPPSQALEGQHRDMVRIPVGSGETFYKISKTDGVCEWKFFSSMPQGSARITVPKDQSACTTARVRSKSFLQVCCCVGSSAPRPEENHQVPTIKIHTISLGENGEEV
Description: (§1) For purposes of discussing α1 adrenoceptor subtypes, the IUPHAR convention of using lower case letters to define molecular clones and upper case letters to indicate pharmacologically defined adrenoceptors has been followed. Compounds of formula I were evaluated in radioligand binding assays specific for α1A (rat submaxillary gland), α1b (hamster receptor expressed in mouse fibroblasts) and α1d (rat receptor expressed in mouse fibroblasts) using [^3H]-prazosin as the radioligand as described in Knepper, et al. J. Pharm.

[2] = molecular target: T2, α1b (hamster receptor expressed in mouse fibroblasts) (Mesocricetus auratus, UniProt P18841); assay: Radioligand binding with [3H]-prazosin, α1b
T2 construct: expressed in transfected cells; host or cells: mouse fibroblasts
T2 sequence (P18841 1-515): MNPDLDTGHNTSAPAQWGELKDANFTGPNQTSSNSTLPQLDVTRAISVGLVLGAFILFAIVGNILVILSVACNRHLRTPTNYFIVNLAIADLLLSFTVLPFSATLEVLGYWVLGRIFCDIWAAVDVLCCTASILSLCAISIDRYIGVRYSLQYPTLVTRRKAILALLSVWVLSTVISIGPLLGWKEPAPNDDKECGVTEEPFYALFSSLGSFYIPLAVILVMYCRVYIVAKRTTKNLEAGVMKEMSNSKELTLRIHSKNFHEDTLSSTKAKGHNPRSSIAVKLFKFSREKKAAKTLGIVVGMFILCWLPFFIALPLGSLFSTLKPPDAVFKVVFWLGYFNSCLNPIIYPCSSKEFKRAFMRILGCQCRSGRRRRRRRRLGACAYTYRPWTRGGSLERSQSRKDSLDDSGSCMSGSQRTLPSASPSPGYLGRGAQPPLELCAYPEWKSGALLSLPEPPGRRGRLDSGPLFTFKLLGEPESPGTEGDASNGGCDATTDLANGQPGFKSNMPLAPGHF
Description: as §1

[3] = molecular target: T3, α1d (rat receptor expressed in mouse fibroblasts) (Rattus norvegicus, UniProt P23944); assay: Radioligand binding with [3H]-prazosin, α1d
T3 construct: expressed in transfected cells; host or cells: mouse fibroblasts
T3 sequence (P23944 1-561): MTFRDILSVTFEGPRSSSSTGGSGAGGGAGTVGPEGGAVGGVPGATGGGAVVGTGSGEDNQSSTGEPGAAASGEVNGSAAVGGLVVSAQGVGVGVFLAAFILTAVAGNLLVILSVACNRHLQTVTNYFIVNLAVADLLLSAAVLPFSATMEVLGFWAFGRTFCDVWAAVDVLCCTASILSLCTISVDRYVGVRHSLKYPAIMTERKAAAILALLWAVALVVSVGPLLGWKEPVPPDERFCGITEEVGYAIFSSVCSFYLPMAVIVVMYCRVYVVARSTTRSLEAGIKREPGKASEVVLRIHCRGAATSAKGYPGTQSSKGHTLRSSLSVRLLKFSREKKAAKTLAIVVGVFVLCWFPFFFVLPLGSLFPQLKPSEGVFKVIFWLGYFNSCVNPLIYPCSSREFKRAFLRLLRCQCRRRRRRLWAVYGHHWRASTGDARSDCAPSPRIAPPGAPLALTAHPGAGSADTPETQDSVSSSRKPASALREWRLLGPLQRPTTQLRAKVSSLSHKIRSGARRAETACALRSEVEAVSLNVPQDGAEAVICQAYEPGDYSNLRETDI
Description: as §1

α1A (rabbit urethra) = molecular target: T4, α1A (rabbit urethra) (Oryctolagus cuniculus, UniProt O02824); assay: Agonist contraction of smooth muscle tissue, rabbit urethra; format: cell-based; conditions: for EC50: read-out: Agonist Tissue Response (pD2) α1A (rab ureth) (converted)
T4 construct: tested for α1A functional activity using rabbit urethra; from tissue; host or cells: rabbit urethra
T4 sequence (O02824 1-466): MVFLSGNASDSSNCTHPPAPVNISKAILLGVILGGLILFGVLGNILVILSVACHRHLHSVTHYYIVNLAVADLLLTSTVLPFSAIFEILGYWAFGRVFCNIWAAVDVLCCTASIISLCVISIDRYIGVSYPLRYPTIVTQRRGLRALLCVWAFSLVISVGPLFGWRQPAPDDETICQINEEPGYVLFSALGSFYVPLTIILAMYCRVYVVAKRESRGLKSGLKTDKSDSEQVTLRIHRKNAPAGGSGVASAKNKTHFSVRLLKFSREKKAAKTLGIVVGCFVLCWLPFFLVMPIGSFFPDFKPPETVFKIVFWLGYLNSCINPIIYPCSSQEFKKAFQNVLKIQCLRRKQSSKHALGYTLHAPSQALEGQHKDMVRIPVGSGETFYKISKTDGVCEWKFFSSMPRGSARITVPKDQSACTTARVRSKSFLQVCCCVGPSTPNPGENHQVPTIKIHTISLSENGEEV
Description: Most of the compounds were tested for α1A functional activity using rabbit urethra as follows. Female New Zealand white rabbits (2.0-3.5 Kg) were sedated with CO2 and decapitated. […] Subsequent experimental conditions were as described above for the other tissues. Agonist concentration response curves were cumulative except for the vas deferens assay in which the transient response made such measurements impractical.

α1D (rat aorta) = molecular target: T5, α1D (rat aorta) (Rattus norvegicus, UniProt P23944); assay: Agonist contraction of smooth muscle tissue, rat aorta; format: cell-based; conditions: for EC50: read-out: Agonist Tissue Response (pD2) α1D (rat aorta) (converted)
T5 construct: α1B (rat spleen) and α1D (rat aorta) receptors; from tissue; host or cells: rat aorta strips, endothelium removed
T5 sequence (P23944 1-561): T3 sequence (P23944 1-561)

α1B (rat spleen) = molecular target: T6, α1B (rat spleen) (Rattus norvegicus, UniProt P15823); assay: Agonist contraction of smooth muscle tissue, rat spleen; format: cell-based; conditions: for EC50: read-out: Agonist Tissue Response (pD2) α1B (rat spleen) (converted)
T6 construct: α1B (rat spleen) and α1D (rat aorta) receptors; from tissue; host or cells: rat spleen
T6 sequence (P15823 1-515): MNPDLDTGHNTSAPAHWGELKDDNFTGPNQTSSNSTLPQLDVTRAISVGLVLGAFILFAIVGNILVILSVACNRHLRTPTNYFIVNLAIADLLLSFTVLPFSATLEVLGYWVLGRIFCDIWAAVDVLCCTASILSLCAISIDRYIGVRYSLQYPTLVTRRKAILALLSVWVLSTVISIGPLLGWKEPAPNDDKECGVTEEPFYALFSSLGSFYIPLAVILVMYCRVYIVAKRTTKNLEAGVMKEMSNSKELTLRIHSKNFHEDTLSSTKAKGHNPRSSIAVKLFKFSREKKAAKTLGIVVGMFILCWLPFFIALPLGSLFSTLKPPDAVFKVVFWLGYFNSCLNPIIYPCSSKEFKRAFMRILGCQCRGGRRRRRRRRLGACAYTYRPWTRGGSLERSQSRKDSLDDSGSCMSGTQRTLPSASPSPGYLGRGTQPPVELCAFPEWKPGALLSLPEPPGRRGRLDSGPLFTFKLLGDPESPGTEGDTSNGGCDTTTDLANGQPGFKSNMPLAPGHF

[4] = rat submaxillary gland, [3H]-prazosin
[5] = Radioligand Binding Ki α1d (Rat), rat receptor expressed in mouse fibroblasts, [3H]-prazosin
[6] = hamster receptor expressed in mouse fibroblasts, [3H]-prazosin, read-out: Radioligand Binding Ki α1b (Hamster)
[7] = rat receptor expressed in mouse fibroblasts, [3H]-prazosin, read-out: Radioligand Binding Ki α1d (Rat)

Ki [2, 6] | Ki [3, 7] | Compound | Ki [1, 4] | Ki [2] | Ki [3, 5] | EC50 (α1A (rabbit urethra); rabbit urethra) | other results
 |  | CS(=O)(=O)Nc1ccc(F)c(Cc2c[nH]cn2)c1 [Example 41, N-[4-fluoro-3-(1H-imidazol-4-ylmethyl)phenyl]methanesulfonamide, maleate] | 0.752 µM | 1.63 µM | 0.348 µM | 13.5 µM | 
 |  | CCS(=O)(=O)Nc1cccc(C(=C2CCCCC2)c2c[nH]cn2)c1 [Example 56] | 0.229 µM | 0.0151 µM | 0.00198 µM | 16.2 µM | EC50 (α1D (rat aorta); rat aorta, endothelium removed): > 1000 µM
 |  | CCS(=O)(=O)Nc1cccc(C(C)c2c[nH]cn2)c1 (stereo not shown) [Example 37, N-{3-[1-(1H-imidazol-4-yl)ethyl]phenyl}ethanesulfonamide, maleate] | 0.772 µM | 2.28 µM | 0.452 µM | 5.37 µM | 
 |  | CS(=O)(=O)Nc1cc(Cc2c[nH]cn2)ccc1O [Example 11, N-[2-hydroxy-5-(1H-imidazol-4-ylmethyl)phenyl]methanesulfonamide, hydrochloride] | 0.0822 µM | 1.4 µM | 0.311 µM | 0.148 µM | EC50 (α1B (rat spleen); rat spleen): 1.2 µM; EC50 (α1D (rat aorta); rat aorta, endothelium removed): 0.692 µM
1.19 µM | 2.23 µM | O=S(=O)(Nc1cccc2c1CCCC2c1cnc[nH]1)c1cccc2cccnc12 (stereo not shown) [Example 73, N-[5-(1H-imidazol-5-yl)-5,6,7,8-tetrahydro-1-naphthalenyl]-8-quinolinesulfonamide] | 1.02 µM |  |  | 17.8 µM | 
1.13 µM | 0.458 µM | Cn1cnc(S(=O)(=O)Nc2cccc3c2CCCC3c2cnc[nH]2)c1 (stereo not shown) [Example 66, N-[5-(1H-imidazol-5-yl)-5,6,7,8-tetrahydro-1-naphthalenyl]-1-methyl-1H-imidazole-4-sulfonamide] | 0.366 µM |  |  |  | 
1.05 µM | 2.29 µM | COc1ccc(S(=O)(=O)Nc2cccc3c2CCCC3c2cnc[nH]2)cc1 (stereo not shown) [Example 71, N-[5-(1H-imidazol-5-yl)-5,6,7,8-tetrahydro-1-naphthalenyl]-4-methoxybenzenesulfonamide] | 1.54 µM |  |  |  | 
4.4 µM | 5.3 µM | O=S(=O)(CCCCl)Nc1cccc2c1CCCC2c1cnc[nH]1 (stereo not shown) [Example 65, 3-Chloro-N-[5-(1H-imidazol-5-yl)-5,6,7,8-tetrahydro-1-naphthalenyl]-1-propanesulfonamide] | 1.16 µM |  |  |  | 
 |  | Cn1cnc(C2CCCc3c2ccc(O)c3NS(C)(=O)=O)c1 (stereo not shown) [Example 5, N-[2-hydroxy-5-(1-methyl-1H-imidazol-4-yl)-5,6,7,8-tetrahydro-1-naphthalenyl]methanesulfonamide, hydrochloride] |  |  |  |  | Ki [1]: 0.136 µM; Ki ([2]; read-out: Radioligand Binding Ki α1b (Hamster)): 6.14 µM; Ki ([3]; read-out: Radioligand Binding Ki α1d (Rat)): 1.55 µM; EC50 (α1A (rabbit urethra)): 0.513 µM; EC50 (α1B (rat spleen)): 9.33 µM; EC50 (α1D (rat aorta)): 3.31 µM

Compound | Ki [2, 6] | Ki [3, 7] | Ki [1, 4] | Ki [2] | Ki [3, 5] | EC50 (α1A (rabbit urethra); rabbit urethra) | other results
5-Chloro-N-[5-(1H-imidazol-5-yl)-5,6,7,8-tetrahydro-1-naphthalenyl]-3-methyl-2,3-dihydro-1-benzothiophene-2-sulfonamide [Example 77] | 0.32 µM | 0.111 µM | 0.65 µM |  |  |  | 
N-[5,6,7,8-tetrahydro-5-(1H-imidazol-4-yl)-1-naphthalenyl]-2-methylethanesulfonamide, maleate [Example 18] |  | 2.05 µM | 1.14 µM |  |  |  | Agonist Tissue Response (pD2) α1A (rab ureth) (α1A (rabbit urethra); rabbit urethra): 5.17; Agonist Tissue Response (pD2) α1B (rat spleen) (α1B (rat spleen); rat spleen): 4.85; Agonist Tissue Response (pD2) α1D (rat aorta) (α1D (rat aorta); rat aorta, endothelium removed): 4.96

From US6503935B1, “Imidazoles and related compounds as α1A agonists” (Abbott Laboratories, priority 1998, dated 2003)
